Experimental data published in EP4782447A1, “HETEROAROMATIC SULFONAMIDE STRUCTURAL COMPOUND, PHARMACEUTICAL COMPOSITION THEREOF, AND USE THEREOF” (Shanghai Yingli Pharmaceutical Co., Ltd, priority 2023, dated 2025).

How the values were obtained:
[1] = test system: HCC1428 cell-derived tumors; experiment: In vivo pharmacodynamic study, subcutaneously implanted HCC1428 tumor model; settings: 30 mg/kg PO, BID*28; BALB/c nude mice with subcutaneous HCC1428 tumors; start at average tumor volume 195 mm^3
Protocol: Estrogen was administered to BALB/c nude mice via injection twice weekly until the end of the experiment, subcutaneous inoculation with 1×10^7 HCC1428 cells (suspended in 100 µL of RPMI medium supplemented with Matrigel at a 1:1 volume ratio). Grouping and drug administration were initiated when the average tumor volume reached 150-200 mm^3. During the experiment, the body weight of the mice and tumor size were measured twice weekly, and the clinical symptoms of the animals were observed and recorded daily. The length (a) and width (b) of the tumors were measured using a vernier caliper, and the tumor volume was calculated according to the formula: TV = a×b^2/2. The tumor growth inhibition rate (TGI, %) was calculated based on the tumor volume using the formula: TGI (%) = [1 - (Ti - T0)/ (Vi - V0)] ×100%, wherein Ti represents the mean tumor volume of the treatment group on the i-th day after grouping, T0 represents the mean tumor volume of the treatment group at the time of grouping, Vi represents the mean tumor volume of the vehicle control group on the i-th day after grouping, and V0 represents the mean tumor volume of the vehicle control group at the time of grouping.

HCC1395 = experiment: Inhibitory effect on cell line proliferation detected by CTG assay; type: cell-based; settings: Homo sapiens, 168 h; HCC1395 cells, 7 days, CellTiter-Glo
Protocol: The relevant assays were performed in 3 84-well plates or 96-well plates. The detailed procedure is as follows: The tested cell suspension was added into 384-well or 96-well plates (excluding peripheral wells) (384-well plate: 50 µL; 96-well plate: 100 µL), and the plates were incubated in a carbon dioxide incubator overnight; specifically, HCC1395 and HCC1428 cells were incubated in a 5% carbon dioxide incubator at 37°C overnight. The tested compounds (9-10 compound concentration gradients via 3-fold serial dilution) were added into the corresponding well by a HPD300 micro-dosing instrument. The cell plates were incubated in a carbon dioxide incubator for 7 days; specifically, for HCC1395 and HCC1428 cells, maintaining the incubation condition at 5% carbon dioxide and 37°C throughout this period. On the day of detection, firstly, the 384-well or 96-well plates were equilibrated at room temperature for 10-30 minutes, and then CellTiter-Glo reagent was added into each plate (384-well plate: 25 µL; 96-well plate: 100 µL), the plates were shaked for 10 minutes in the dark place, and incubated for another 10 minutes. The plates were placed into the Victor NIVO microplate reader for measurement. The efficacy inhibition rate curves were ploted using XLFit software and the IC50 values were calculated. Table 2 Anti-proliferative activity assay results of the representative compounds of the present disclosure against cell lines

[2] = Pharmacokinetic study of mice via intravenous injection and oral administration; type: in vivo; settings: mouse, male CD-1 mice, plasma, a: mixed blood samples, b: mean of individual samples
Protocol: Plasma samples from male C57BL/6J mice or male CD-1 mice after intravenous injection and oral administration dosing with the tested compound, were collected from the orbital venous plexus at 8-9 time points (e.g., 5 min, 15 min, 30 min, 1 h, 2 h, 4 h, 7 h, 24 h or 5 min, 15 min, 30 min, 1 h, 2 h, 4 h, 6 h, 8 h, 24 h). The collected blood samples were transferred to microcentrifuge tubes containing EDTA-K2 anticoagulant, centrifuged at 4000 g and 4°C for 5 min. The resulting supernatant was pipetted and stored in a -75°C ± 15°C refrigerator . The compound concentrations in plasma samples at different time points were determined via LC-MS/MS, and the relevant pharmacokinetic parameters were calculated using WinNonlin software. Table 3-1 Pharmacokinetic determination results of the representative compounds of the present disclosure

PARG (389-976) = molecular target: T1, PARG (389-976) (Homo sapiens, UniProt Q86W56); experiment: PARG enzyme inhibition assay (TR-FRET); type: biochemical; settings: PARG 1.5 pM, Bio PARylated His-TEV-PARP1 substrate 12 nM
T1 construct: 5 µL of PARG (389-976) (manufactured by ChemPartner Co., Ltd.) was added into the 384-well plate; purchased ChemPartner Co., Ltd
Protocol: The in vitro PARG assay experiment was performed in a standard 384-well plate with a total reaction volume of 15 µL. In a buffer solution (50 mM Tris-HCl pH 7.5, 30 mM KCl, 1 mM EDTA, 3 mM DTT, 0.01% Tween-20, 0.025% BSA), 5 µL of PARG (389-976) (manufactured by ChemPartner Co., Ltd.) was added into the 384-well plate containing test compounds (with various concentrations) to obtain a final concentration of 1.5 pM, followed by incubation at room temperature for 30 minutes. Subsequently, 5 µL of Bio PARylated His-TEV-PARP1 (2-1014) substrate (manufactured by ChemPartner Co., Ltd.) was added into the above reaction mixture to obtain a final concentration of 12 nM, and the reaction was carried out at room temperature for 30 minutes after the addition was completed. Then, 5 µL of detection reagent was added. The detection reagent was prepared by buffer solution (50 mM Tris-HCl pH 7.5, 30 mM KCl, 1 mM EDTA, 3 mM DTT, 0.01% Tween-20, 0.025% BSA) consisting of 3 µM compound PDD00017273, 9 nM Mab anti-6HIS XL665 (Cisbio: 61HISXLA) and 0.9 nM streptavidin cryptate (Cisbio: 610SATLA). All three components were used at 3X working concentration, corresponding to final concentrations of 1 µM, 3 nM and 0.3 nM, respectively. After incubation at room temperature for 120 minutes in the dark place, the TR-FRET signals were measured at an excitation wavelength (Ex) of 340 nm, emission wavelengths (Em) of 665 nm and 615 nm. The ratio for each well was calculated as Em 665 / Em 615, and the compound inhibition rate was determined based on the obtained data. Table 1 Biochemical activity against PARG of the representative compounds of the rresent invention

[3] = Intravenous administration (5mg/kg)
[4] = in vivo, Intravenous administration (5mg/kg)
[5] = in vivo, Oral administration (10mg/kg)

T1 sequence (Q86W56 389-976): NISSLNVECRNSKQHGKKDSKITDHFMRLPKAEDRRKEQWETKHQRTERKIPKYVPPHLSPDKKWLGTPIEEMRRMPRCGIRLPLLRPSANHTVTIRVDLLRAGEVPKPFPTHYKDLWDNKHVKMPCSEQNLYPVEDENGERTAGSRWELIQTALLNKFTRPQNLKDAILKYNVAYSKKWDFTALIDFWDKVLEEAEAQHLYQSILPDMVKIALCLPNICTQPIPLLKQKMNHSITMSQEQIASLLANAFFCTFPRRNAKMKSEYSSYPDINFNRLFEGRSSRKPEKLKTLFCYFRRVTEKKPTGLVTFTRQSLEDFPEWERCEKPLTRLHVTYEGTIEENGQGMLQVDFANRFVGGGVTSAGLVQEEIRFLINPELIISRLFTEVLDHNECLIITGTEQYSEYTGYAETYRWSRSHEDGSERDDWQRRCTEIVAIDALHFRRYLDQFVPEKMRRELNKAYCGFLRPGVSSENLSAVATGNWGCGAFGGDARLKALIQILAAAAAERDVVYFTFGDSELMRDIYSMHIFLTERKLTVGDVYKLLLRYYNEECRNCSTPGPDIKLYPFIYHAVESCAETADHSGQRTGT

## CC(C)S(=O)(=O)N1CC=C(c2c(F)c(S(=O)(=O)NC3(C#N)CC3)cc3c(-c4nnc(C(F)(F)F)s4)nn(C)c23)CC1 [Compound 1]
[1]
  Tumor Growth Inhibition Rate TGI (%): 106.8%
HCC1395
  IC50: 0.0949 µM
[2]; [3]
  AUC(0-inf): 44100 ng·h/mL
  AUC(0-t): 44000 ng·h/mL
  clearance: 1.89 mL/min/kg
[2]; Oral administration (10mg/kg)
  AUC(0-inf): 32800 ng·h/mL
  AUC(0-t): 32800 ng·h/mL
  Cmax: 4320 ng/mL
PARG (389-976)
  IC50: 0.23 nM

## CC1=C(c2c(F)c(S(=O)(=O)NC3(C#N)CC3)cc3c(-c4nnc(C(F)(F)F)s4)nn(C)c23)CCN(S(=O)(=O)C(C)C)C1 [Compound 2]
HCC1395
  IC50: 0.0368 µM
[2]; [3]
  AUC(0-inf): 50100 ng·h/mL
  AUC(0-t): 49600 ng·h/mL
  clearance: 1.68 mL/min/kg
[2]; Oral administration (10mg/kg)
  AUC(0-inf): 46900 ng·h/mL
  AUC(0-t): 46700 ng·h/mL
  Cmax: 5370 ng/mL
PARG (389-976)
  IC50: 0.3 nM

## CC(C)S(=O)(=O)N1CC=C(c2c(F)c(S(=O)(=O)NC3(C#N)CC3)cc3c(-c4nnc(C(F)F)s4)nn(C)c23)CC1 [Compound 3]
HCC1395
  IC50: 0.0992 µM
[2]; [3]
  AUC(0-inf): 33700 ng·h/mL
  AUC(0-t): 33700 ng·h/mL
  clearance: 2.47 mL/min/kg
[2]; Oral administration (10mg/kg)
  AUC(0-inf): 12000 ng·h/mL
  AUC(0-t): 12000 ng·h/mL
  Cmax: 3300 ng/mL
PARG (389-976)
  IC50: 0.19 nM

## CC1=C(c2c(F)c(S(=O)(=O)NC3(C#N)CC3)cc3c(-c4nnc(C(F)F)s4)nn(C)c23)CCN(S(=O)(=O)C(C)C)C1 [Compound 4]
HCC1395
  IC50: 0.0445 µM
[2]; [3]
  AUC(0-inf): 20300 ng·h/mL
  AUC(0-t): 18400 ng·h/mL
  clearance: 4.17 mL/min/kg
[2]; Oral administration (10mg/kg)
  AUC(0-inf): 11300 ng·h/mL
  AUC(0-t): 11000 ng·h/mL
  Cmax: 2010 ng/mL
PARG (389-976)
  IC50: 0.48 nM

## CC1=C(c2c(F)c(S(=O)(=O)NC3(C)CC3)cc3c(-c4nnc(C(F)(F)F)s4)nn(C)c23)CCN(S(=O)(=O)C(C)C)C1 [Compound 5]
HCC1395
  IC50: 0.043 µM
PARG (389-976)
  IC50: 0.43 nM

## CC(C)S(=O)(=O)N1CC=C(c2c(F)c(S(=O)(=O)NC3(C)CC3)cc3c(-c4nnc(C(F)(F)F)s4)nn(C)c23)CC1 [Compound 6]
HCC1395
  IC50: 0.0913 µM
PARG (389-976)
  IC50: 0.35 nM

## CC(C)S(=O)(=O)N1CC=C(c2c(F)c(S(=O)(=O)NC3(C)CC3)cc3c(-c4nnc(C(F)F)s4)nn(C)c23)CC1 [Compound 7]
HCC1395
  IC50: 0.074 µM
PARG (389-976)
  IC50: 0.21 nM

## CC1=C(c2c(F)c(S(=O)(=O)NC3(C)CC3)cc3c(-c4nnc(C(F)F)s4)nn(C)c23)CCN(S(=O)(=O)C(C)C)C1 [Compound 8]
HCC1395
  IC50: 0.0322 µM
PARG (389-976)
  IC50: 0.17 nM

## CC(C)C(=O)N1CC=C(c2c(F)c(S(=O)(=O)NC3(C#N)CC3)cc3c(-c4nnc(C(F)F)s4)nn(C)c23)CC1 [Compound 9]
HCC1395
  IC50: 0.0446 µM
[2]; [3]
  AUC(0-inf): 8560 ng·h/mL
  AUC(0-t): 8550 ng·h/mL
  clearance: 9.8 mL/min/kg
[2]; Oral administration (10mg/kg)
  AUC(0-inf): 11500 ng·h/mL
  AUC(0-t): 11500 ng·h/mL
  Cmax: 6160 ng/mL
PARG (389-976)
  IC50: 0.56 nM

## CC(C)C(=O)N1CC=C(c2c(F)c(S(=O)(=O)NC3(C#N)CC3)cc3c(-c4nnc(C(F)(F)F)s4)nn(C)c23)CC1 [Compound 10]
PARG (389-976)
  IC50: 1.24 nM

## CC(C)C(=O)N1CC=C(c2c(F)c(S(=O)(=O)NC3(C)CC3)cc3c(-c4nnc(C(F)F)s4)nn(C)c23)CC1 [Compound 11]
PARG (389-976)
  IC50: 0.7 nM

## CCC1=C(c2c(F)c(S(=O)(=O)NC3(C#N)CC3)cc3c(-c4nnc(C(F)(F)F)s4)nn(C)c23)CCN(S(=O)(=O)C(C)C)C1 [Compound 13]
HCC1395
  IC50: 0.0313 µM
[2]; [4]
  AUC(0-inf): 35900 ng·h/mL
  AUC(0-t): 35900 ng·h/mL
  clearance: 2.32 mL/min/kg
[2]; [5]
  AUC(0-inf): 25400 ng·h/mL
  AUC(0-t): 25400 ng·h/mL
  Cmax: 2500 ng/mL
